Data set [1] has as its target T1, E. coli Lsp (Escherichia coli, UniProt P00804, D131G/R160K). Put plainly: biochemical. The arrangement: The full length E. coli Lsp clone was generated using colony PCR of E. coli K12; His-tag (pET19b leader); made in house; host or cells: E. coli BL21(DE3)pLysS. As for the experimental part: Utilizing the purified and solubilized Lsp enzyme, we developed an in vitro high-throughput functional screening for the integral membrane protease Lsp. First, screening of the Maybridge HitFinder library (Thermo Fisher) was conducted in black polystyrene 384-well low volume plates (Greiner #788076) using a BioRAPTR reagent dispenser (Beckman Coulter). Purified Lsp was diluted to 500 nM in assay buffer (PBS, 5% glycerol, 0.5% DDM pH 7.4) and 10 µL of this stock was added into each well. Next, 100 nL of a 2 mM stock of library compounds were pinned into each well and plates were centrifuged briefly. Following incubation at room temperature for 30 minutes, 2.5 μL of 250 μM Lsp FRET substrate in 25% dimethyl sulfoxide (DMSO), 75% assay buffer was added to each well. The plates were spun down and incubated for 30 minutes at room temperature. The assay was quenched with 2.5 μL of a solution containing 500 mM zinc chloride in water, giving a final concentration of 83 mM. The concentration of Lsp, FRET substrate, and library compounds during the activity assay were 400 nM, 50 μM, and 16 μM, respectively.
Catalytic signal was defined as the full enzyme activity pinning DMSO only, and background signal was measured by adding substrate to assay buffer containing no Lsp.
We tested several fixed concentrations of BBS-20 against varying concentrations of Lsp FRET substrate to determine a mechanism of inhibition (FIG. 8).

Data set [2] concerns the target T1, E. coli Lsp. The conditions noted are these: resynthesized compound.
Experimental: Next, 50 nL of stock TSRI FL library compounds were pinned into each well to a final concentration of 8.4 μM and plates were centrifuged briefly. […] Fluorescence was measured on an EnVision pate reader (ex. 355 nm; em. 495 nm).
The 344 compounds were subjected to a dose-dependent titration assay with 10-point dose-response titrations (3-fold dilutions) in triplicate. LSP primary and pre-quench titration assays employed the same reagents, protocols, and detection systems as the secondary assays. […] Globomycin was included in the both titration assays as a control. For each test compound, percent activity was plotted against compound concentration. A four parameter equation describing a sigmoidal dose-response curve was then fitted with adjustable baseline using Assay Explorer software (Symyx Technologies Inc.). The reported IC50 values were generated from fitted curves by solving for the X-intercept value at the 50% activity level of the Y-intercept value.
For a further data set, the target named is Lsp (Escherichia coli, UniProt P00804). The conditions noted are these: cited from earlier work.
Data set [3] addresses Lsp FRET peptide substrate Dabsyl-VTGC((R)-2,3-di(palmitoyloxy)-propyl)AKD(EDANS). Put plainly: cell-based or functional assay.
Data set [4] addresses T2, Lsp FRET peptide substrate Dabsyl-VTGC((R)-2,3-di(palmitoyloxy)-propyl)AKD(EDANS).
T2 chain: VTGCAKD

One may read the IC50 as the concentration at which inhibition is half-maximal. By EC50 is commonly meant the concentration giving half of the maximal effect.

T1 sequence (P00804 other isoform, or with tags, fused parts or gaps D131G/R160K): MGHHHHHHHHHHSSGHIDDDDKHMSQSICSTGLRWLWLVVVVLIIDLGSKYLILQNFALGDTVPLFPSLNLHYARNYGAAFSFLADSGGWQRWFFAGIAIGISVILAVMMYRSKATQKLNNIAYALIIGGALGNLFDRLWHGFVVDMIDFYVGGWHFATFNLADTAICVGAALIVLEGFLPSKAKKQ

In the case of `CCN(CC)CCc1cn(CC(=O)NC[C@]2(C)CCC[C@]3(C)c4ccc(C(C)C)cc4CC[C@@H]23)nn1` [BBS-20], at E. coli Lsp [1], the IC50 came to 15 ± 4 µM. The “identified as Lsp inhibitor in Sharpless library screen” value on E. coli Lsp [1] (16 μM compound, 400 nM Lsp, 50 μM FRET substrate, triplicate) is “inhibitors”. Besides, the mode of inhibition result at E. coli Lsp [1] (fixed concentrations of compound against varying concentrations of Lsp FRET substrate) was “noncompetitive”.
As to `CCC(CC)c1nnc(NC(=O)c2cc(OC)c(OC)cc2[N+](=O)[O-])s1` [SR-01000270728-1], on E. coli Lsp [2], the midpoint of the response, the EC50, lay at 2.2 µM.
On to `CCCCCCC1OC(=O)CNC(=O)C(C(C)O)NC(=O)C(CO)NC(=O)C(C(C)CC)NC(=O)C(CC(C)C)N(C)C(=O)C1C` (stereo not shown) [globomycin], for which, at Lsp, the mode of inhibition entry is on record as “noncompetitively”.
“E. coli lipoprotein signal peptidase (Lsp), full length, N-terminal His-tag fusion, DDM-solubilized and purified (from UniProt P00804 1-164) (enzyme)” came in with a substrate inhibition (Michaelis-Menten kinetics of peptide hydrolysis, FRET) in data set [3] above 100 µM.

B1: E. coli lipoprotein signal peptidase (Lsp), full length, N-terminal His-tag fusion, DDM-solubilized and purified (protein)
chain: MSQSICSTGLRWLWLVVVVLIIDLGSKYLILQNFALGDTVPLFPSLNLHYARNYGAAFSFLADSGGWQRWFFAGIAIGISVILAVMMYRSKATQKLNNIAYALIIGGALGNLFDRLWHGFVVDMIDFYVGDWHFATFNLADTAICVGAALIVLEGFLPSRAKKQ
For B1, the “KM (Michaelis-Menten kinetics of peptide hydrolysis, FRET)” value in data set [4] is given as “KM=5 µM”.

(Values after patent US20190144912A1, “METHODS FOR IDENTIFYING NOVEL ANTIBIOTICS AND RELATED COMPOSITIONS” (priority 2015, published 2019).)
